Consider 17 molecules from ChEMBL document CHEMBL5518221, “Discovery and Optimization of Selective Brain-Penetrant EBP Inhibitors that Enhance Oligodendrocyte Formation” (J Med Chem, 2024).

As a reminder, the EC50 is the midpoint of the concentration-response curve. A word on the half-life: it is the time in which the quantity being followed falls by half. Lower therefore signals fast loss. Broadly, the clearance is a measure of how efficiently the substance is removed, as volume per time. Read a low clearance as inefficient removal. By pKa is commonly meant the pH at which an ionisable group is half protonated. High values mean a weaker acid or stronger base, low ones a stronger acid or weaker base. As a reminder, the Vd is a proportionality between amount in the body and measured concentration, not a real space. Low values mean confinement near the circulation, high ones extensive tissue distribution. In general, IC50 refers to the concentration that inhibits the measured activity by half. Low values mean greater potency in that assay, high ones weaker potency in that assay. Usually fraction unbound stands for the share of the substance not bound to proteins or other matrix. By solubility (kinetic) is commonly meant solubility judged after dilution from a stock solution rather than from solid. In general, Papp A→B refers to how fast a substance crosses the layer from the apical side. Read a low Papp A→B as slow passage. The bioavailability is the share of a dose that reaches the circulation, judged against a reference dose that is usually intravenous. A higher bioavailability goes with much systemic uptake.

≈ marks a conversion by molar mass, not a printed value.

One data set in a line: in vitro. To be noted: CD-1, mouse, pooled liver microsomes. Background: Microsomes from liver hold many membrane-bound enzymes, among them those of drug oxidation.
The target of data set [1] is T1, 3-beta-hydroxysteroid-Delta(8),Delta(7)-isomerase (Mus musculus, UniProt P70245).
T1 sequence (P70245 whole entry): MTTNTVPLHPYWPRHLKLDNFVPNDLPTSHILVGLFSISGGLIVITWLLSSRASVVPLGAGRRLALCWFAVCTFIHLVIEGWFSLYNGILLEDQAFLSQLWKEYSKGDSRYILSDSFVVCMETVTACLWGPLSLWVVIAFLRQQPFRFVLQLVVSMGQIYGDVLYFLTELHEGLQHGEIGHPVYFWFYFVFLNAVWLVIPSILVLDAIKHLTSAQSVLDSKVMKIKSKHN
The data set is described as follows: Inhibition of EBP in mouse Oligodendrocyte precursor cell assessed as zymostenol accumulation by GCMS analysis.

Data set [2] in a line: Half-life in female C57BL/6 mouse at 1 mg/kg, iv measured after 0.083 hrs by LC-MS/MS analysis. To be noted: in vivo.
The nature of data set [3]: Clearance in female C57BL/6 mouse at 1 mg/kg, iv measured after 0.083 hrs by LC-MS/MS analysis. To be noted: in vivo.
Data set [4] in a line: Half-life in male Sprague-Dawley rat at 1 mg/kg, iv measured after 8 hrs by LC-MS/MS analysis. To be noted: in vivo.
The nature of data set [5]: Unbound brain-to-plasma concentration ratio in male Sprague-Dawley rat at 1 mg/kg, iv measured after 8 hrs by LC-MS/MS analysis.
Data set [6] can be described thus: Dissociation constant, pKa of compound.
Data set [7] can be described thus: Volume of distribution at steady state in male Sprague-Dawley rat at 1 mg/kg, iv measured after 8 hrs by LC-MS/MS analysis. To be noted: in vivo.
A short description of data set [8]: Unbound brain-to-plasma concentration ratio in female C57BL/6 mouse at 1 mg/kg, iv measured after 8 hrs by LC-MS/MS analysis.
Data set [9] can be described thus: Clearance in male Sprague-Dawley rat at 1 mg/kg, iv measured after 8 hrs by LC-MS/MS analysis. To be noted: in vivo.
Data set [10] has as its target Voltage-gated inwardly rectifying potassium channel KCNH2 (Homo sapiens, UniProt Q12809). The data set is described as follows: Inhibition of human ERG expressed in CHO cells by whole cell patch clamp recording. Background: The patch-clamp technique gives a direct electrical read-out from membranes.
Data set [11] can be described thus: Volume of distribution at steady state in female C57BL/6 mouse at 1 mg/kg, iv measured after 0.083 hrs by LC-MS/MS analysis. To be noted: in vivo.
Data set [12] in a line: Half-life in female C57BL/6 mouse at 10 mg/kg, po measured after 24 hrs by LC-MS/MS analysis. To be noted: in vivo.
Data set [13] is described as follows: Protein binding in CD-1 mouse plasma at 5 uM incubated for 6 hrs by equilibrium dialysis based HPLC analysis.
Data set [14] is described as follows: Kinetic solubility of compound in PBS at pH 7.4.
Another data set relates to MDR1. The experiment in a line: in vitro. To be noted: dog, MDCK-MDR1.
Data set [15] in a line: Unbound brain-to-plasma concentration ratio in male Sprague-Dawley rat at 5 mg/kg, po measured after 8 hrs by LC-MS/MS analysis.
Data set [16] can be described thus: Protein binding in human plasma at 5 uM incubated for 6 hrs by equilibrium dialysis based HPLC analysis. (In general: Equilibrium dialysis compares concentrations on both sides of a semipermeable membrane.)
Another data set deals with BCRP. The experiment in a line: in vitro. To be noted: dog.
Data set [17] in a line: in vivo. To be noted: female, C57BL/6, mouse, po, 10 mg/kg.
Data set [18] is described as follows: in vivo. To be noted: male, Sprague-Dawley, rat, po, 5 mg/kg.
The nature of data set [19]: Protein binding in Sprague-Dawley rat plasma at 5 uM incubated for 6 hrs by equilibrium dialysis based HPLC analysis.
Data set [20] is described as follows: Unbound brain-to-plasma concentration ratio in female C57BL/6 mouse at 10 mg/kg, po measured after 8 hrs by LC-MS/MS analysis.
Data set [21] in a line: in vivo. To be noted: female, C57BL/6, mouse, brain/plasma, 2 mg/kg.
Description: Unbound brain-to-plasma concentration ratio in female C57BL/6 mouse at 2 mg/kg administered daily for 7 days and measured 8 hrs post last dose
Data set [22] can be described thus: Half-life in male Sprague-Dawley rat at 5 mg/kg, po measured after 8 hrs by LC-MS/MS analysis. To be noted: in vivo.
The nature of data set [23]: Unbound brain-to-plasma concentration ratio in female C57BL/6 mouse at 0.2 mg/kg administered daily for 7 days and measured 8 hrs post last dose.
Data set [24] deals with 3-beta-hydroxysteroid-Delta(8),Delta(7)-isomerase (Homo sapiens, UniProt Q15125). The experiment in a line: Inhibition of EBP in human Mesenchymal stem cells assessed as zymostenol accumulation by GCMS analysis.
Sequence of 3-beta-hydroxysteroid-Delta(8),Delta(7)-isomerase (Homo sapiens, UniProt Q15125) (Q15125 whole entry): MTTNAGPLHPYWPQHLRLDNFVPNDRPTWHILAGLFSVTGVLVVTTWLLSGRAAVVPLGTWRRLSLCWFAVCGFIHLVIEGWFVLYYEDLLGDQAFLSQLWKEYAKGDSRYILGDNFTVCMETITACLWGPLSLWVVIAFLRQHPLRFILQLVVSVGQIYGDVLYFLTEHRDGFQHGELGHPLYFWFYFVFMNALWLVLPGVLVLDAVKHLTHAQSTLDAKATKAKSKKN

Sequence of Voltage-gated inwardly rectifying potassium channel KCNH2 (Q12809 whole entry): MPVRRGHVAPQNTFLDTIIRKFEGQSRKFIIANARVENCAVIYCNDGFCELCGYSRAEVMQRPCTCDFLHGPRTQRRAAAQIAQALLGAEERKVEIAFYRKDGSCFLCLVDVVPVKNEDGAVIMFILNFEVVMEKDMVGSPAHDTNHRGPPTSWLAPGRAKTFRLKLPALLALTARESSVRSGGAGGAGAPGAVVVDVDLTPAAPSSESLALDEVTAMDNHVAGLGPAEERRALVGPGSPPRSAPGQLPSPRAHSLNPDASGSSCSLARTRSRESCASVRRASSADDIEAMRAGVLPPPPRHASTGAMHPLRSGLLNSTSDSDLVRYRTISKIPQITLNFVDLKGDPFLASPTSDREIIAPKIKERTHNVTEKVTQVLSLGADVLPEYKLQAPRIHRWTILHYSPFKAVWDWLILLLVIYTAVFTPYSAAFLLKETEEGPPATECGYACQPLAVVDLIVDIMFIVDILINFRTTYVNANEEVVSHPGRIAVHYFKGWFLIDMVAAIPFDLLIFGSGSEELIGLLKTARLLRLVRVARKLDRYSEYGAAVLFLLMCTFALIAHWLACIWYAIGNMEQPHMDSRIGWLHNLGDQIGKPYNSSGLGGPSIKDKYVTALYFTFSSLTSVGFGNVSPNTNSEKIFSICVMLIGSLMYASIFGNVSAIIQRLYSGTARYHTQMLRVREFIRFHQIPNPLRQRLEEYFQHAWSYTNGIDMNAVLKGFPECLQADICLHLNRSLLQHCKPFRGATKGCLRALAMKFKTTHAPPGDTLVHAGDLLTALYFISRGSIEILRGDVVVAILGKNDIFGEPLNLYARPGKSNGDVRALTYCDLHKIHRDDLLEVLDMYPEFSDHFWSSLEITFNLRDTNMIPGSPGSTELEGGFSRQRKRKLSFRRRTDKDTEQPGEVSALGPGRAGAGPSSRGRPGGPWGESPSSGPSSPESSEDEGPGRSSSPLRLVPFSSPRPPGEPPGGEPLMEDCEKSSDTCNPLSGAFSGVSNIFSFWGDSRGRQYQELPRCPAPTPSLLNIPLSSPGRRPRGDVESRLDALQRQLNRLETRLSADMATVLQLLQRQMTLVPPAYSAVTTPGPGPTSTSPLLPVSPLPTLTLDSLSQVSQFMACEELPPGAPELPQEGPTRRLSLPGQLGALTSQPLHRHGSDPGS

As for `O=C1N(c2ccc(C(F)(F)F)cc2)C(=O)C2(CCN(CC3CCOCC3)CC2)N1C1CC1`, in the data set “in vitro”, the CLhep predicted at 1 h, 1 µM is below 14 mL/min/kg.
Consider `CCN1C(=O)N(c2cc(Cl)cc(C#N)c2)C(=O)C12CCN(CC1CCOCC1)CC2`, for which, in data set [1], the EC50 was determined as 16 nM. In data set [2], this molecule had a half-life at […] of 0.8 h. Moreover, in the data set “in vitro”, the CLhep predicted at 1 h, 1 µM is 35 mL/min/kg.
On the same counts, the results for `CCN1C(=O)N(c2ccc(C)cc2)C(=O)C12CCN(CC1CCOCC1)CC2` are 18 nM, 1.8 h and below 14 mL/min/kg.
For `CCN1C(=O)N(c2ccc(C(F)(F)F)cc2)C(=O)C12CCN(CC1CCOCC1)CC2`, the clearance at […] in [3] was determined as 4 mL/min/kg. In data set [4], this molecule had a half-life at 8 h of 16 h. The results for the Kp uu at 8 h in [5] and in data set [8] were 1.59 and 0.95, respectively. The same molecule gave a pKa in [6] of 7.9. This molecule registered a Vd at 8 h in data set [7] of 8.3 L/kg. Moreover, in [9], the clearance at 8 h amounted to 6.3 mL/min/kg. In data set [10], this molecule registered an IC50 of 3000 nM. For the same molecule, the half-maximal effective concentration (EC50) in data set [1] amounted to 6 nM. This molecule gave a half-life at […] in [2] of 62 h. Further, in the data set “in vitro”, the CLhep predicted at 1 h, 1 µM was 17 mL/min/kg. Further, in [11], the Vd at […] came to 7.4 L/kg.
`CCN1C(=O)N(c2ccc(C(F)(F)F)cc2)C(=O)C12CCN(C1CCCOCC1)CC2` (stereo not given) registered a pKa in data set [6] of 8.1. It took 850 nM to reach half-maximal inhibition in data set [10] (IC50). In addition, the EC50 in data set [1] stood at 95 nM.
Molecule `CCN1C(=O)N(c2ccc(C3CC3)cc2)C(=O)C12CCN(CC1CCOCC1)CC2` had a half-life at 24 h in data set [12] of 3.3 h. The clearance at […] in [3] was 17 mL/min/kg. The results for the fraction unbound at 6 h, 5 µM in data set [13], in [16] and in [19] were 0.364, 0.291 and 0.3, respectively. Besides, the half-life at 8 h in [4] was 4.4 h; in data set [22], 5.1 h. Also, the Kp uu at 8 h in data set [5] amounted to 0.74; in data set [15] it was 0.5; in data set [8] it was 0.77; in [20], 0.72. Besides, the solubility (kinetic) in [14] amounted to 64 µM (≈ 26.3 µg/mL). Also, the Papp A→B in the data set on MDR1 was 15 ×10⁻⁶ cm/s; in the data set on BCRP it was 20 ×10⁻⁶ cm/s. The Vd at 8 h in [7] came out at 6.2 L/kg. In the data set “in vivo [17]”, this molecule yielded a bioavailability at 24 h of 68%. For the same molecule, the bioavailability at 8 h in the data set “in vivo [18]” was found to be 42%. In data set [9], this molecule registered a clearance at 8 h of 17 mL/min/kg. This molecule returned an IC50 in data set [10] of 8200 nM. Further, the EC50 in data set [1] amounted to 8 nM. This molecule also showed a half-life at […] in data set [2] of 3.9 h. Besides, the Kp uu at 176 h was 0.6 in the data set “in vivo [21]” and 1.7 in data set [23]. For the same molecule, the CLhep predicted at 1 h, 1 µM in the data set “in vitro” is below 14 mL/min/kg. In data set [11], this molecule yielded a Vd at […] of 5.2 L/kg.
The molecule `CCN1C(=O)N(c2ccc(C(F)(F)F)cc2)C(=O)C12CCN(CC1(F)CCOCC1)CC2` yielded a pKa in [6] of 5.7. 65000 nM corresponded to half-maximal inhibition in [10] (IC50). Also, the EC50 in data set [1] was 68 nM.
Consider `CCN1C(=O)N(c2ccc(C(F)(F)F)cc2)C(=O)C12CCN(CC1CCS(=O)(=O)CC1)CC2`, for which the pKa in data set [6] was 8.1. This molecule gave an IC50 in [10] of 73000 nM. Further, in data set [1], the concentration for a half-maximal effect (EC50) was found to be 43 nM.
Take `CC(C)N1C(=O)N(c2ccc(C(F)(F)F)cc2)C(=O)C12CCN(CC1CCOCC1)CC2`: the EC50 was 669 nM in [24] and 315 nM in [1]. The CLhep predicted at 1 h, 1 µM in “in vitro” is below 14 mL/min/kg.
As to `CCN1C(=O)N(c2cccc(C3CC3)c2)C(=O)C12CCN(CC1CCOCC1)CC2`, the EC50 in [1] worked out at 9 nM. Also, the half-life at […] in data set [2] is 1.2 h. In “in vitro”, the CLhep predicted at 1 h, 1 µM was 47 mL/min/kg.
In the case of `O=C1NC2(CCN(CC3CCOCC3)CC2)C(=O)N1c1ccc(C(F)(F)F)cc1`, the EC50 in data set [1] turned out to be 1000 nM. The CLhep predicted at 1 h, 1 µM in the data set “in vitro” was below 14 mL/min/kg.
Turning to `CN1C(=O)N(c2ccc(C(F)(F)F)cc2)C(=O)C12CCN(CC1CCOCC1)CC2`, the EC50 in data set [1] turned out to be 20 nM. Further, the CLhep predicted at 1 h, 1 µM in the data set “in vitro” is below 14 mL/min/kg.
As to `CCN1C(=O)N(c2ccc(C(F)(F)F)cc2)C(=O)C12CCN(C1CCOCC1)CC2`, in data set [6], the pKa amounted to 8.2. In addition, half-maximal inhibition in data set [10] (IC50) required 4400 nM. In addition, the EC50 in [1] is 364 nM.
For `O=C1N(c2ccc(C(F)(F)F)cc2)CCC12CCN(CC1CCOCC1)CC2`, the EC50 in [24] stood at 147 nM; in data set [1] it was 36 nM. Moreover, in the data set “in vitro”, the CLhep predicted at 1 h, 1 µM was 18 mL/min/kg.
As to `CCN1C(=O)N(c2ccc(Cl)cc2)C(=O)C12CCN(CC1CCOCC1)CC2`, the half-life at […] in data set [2] is 5.7 h. For the same molecule, the CLhep predicted at 1 h, 1 µM in the data set “in vitro” is 25 mL/min/kg.
Take `CCN1C(=O)N(c2ccc(C(F)(F)F)cc2)C(=O)C12CCN(C(C)C1CCOCC1)CC2` (stereo not given): the pKa in data set [6] worked out at 8.2. The same molecule gave an IC50 in data set [10] of 2900 nM. In addition, the concentration for a half-maximal effect (EC50) in data set [1] worked out at 41 nM.
The molecule `CCN1C(=O)N([C@H]2CC[C@H](C(F)(F)F)CC2)C(=O)C12CCN(CC1CCOCC1)CC2` showed a half-life at 24 h in data set [12] of 5.3 h. Moreover, in data set [3], the clearance at […] amounted to 9.9 mL/min/kg. Moreover, the fraction unbound at 6 h, 5 µM in [13] was 0.376; in data set [16], 0.296; in data set [19] it was 0.278. The molecule also gave a half-life at 8 h in [4] of 12 h. The Kp uu at 8 h in data set [5] came out at 0.6; in data set [15], 0.58; in data set [8], 0.56; in [20], 0.62. In data set [14], this molecule registered a solubility (kinetic) of 29 µM (≈ 12.9 µg/mL). Also, the Papp A→B is 14 ×10⁻⁶ cm/s in the data set on MDR1 and 20 ×10⁻⁶ cm/s in the data set on BCRP. The same molecule showed a Vd at 8 h in [7] of 8.3 L/kg. In addition, the bioavailability at 24 h in “in vivo [17]” was 47%. Further, the bioavailability at 8 h in the data set “in vivo [18]” is 13%. The same molecule showed a clearance at 8 h in [9] of 9.2 mL/min/kg. The same molecule registered an IC50 in data set [10] of 8000 nM. This molecule showed a half-life at […] in data set [2] of 5.7 h. In the data set “in vitro”, the CLhep predicted at 1 h, 1 µM is below 14 mL/min/kg. The same molecule returned a Vd at […] in data set [11] of 5.1 L/kg.
